From patent US20050143356A1, “Selective inhibition of cyclooxygenase 1 in the treatment of diabetic nephropathy” (Vanderbilt University, priority 2003, published 2005)

Columns and labels:
C57BLKS db/db mice [1] = assay: Body weight gain, blood sugar and glycosylated hemoglobin in diabetic db/db mice; conditions: diabetic db/db mice vs. vehicle treated controls, 6 months
Excerpt: (§1) The C57BLKS db/db mice is a rodent model of type II diabetes mellitus. A LepR^db (db) mutation on chromosome 4 (G→T point mutation) has been identified in the leptin receptor gene. This mutation generates a new donor splice site, leading to prematurely termination of the intracellular domain of leptin receptor and lack of leptin signal transduction. C57BLKS db/db strain is more susceptible to the development of diabetic nephropathy than the C57BL/6J db/db strain. Animals are characterized by obesity, insulin resistance, diabetes and diabetic nephropathy (DN). […] Pathologic changes include mesangial matrix expansion (>50% increase in the majority of glomeruli) and GBM thickening >25%, absence of GBM electron dense material by EM, arteriolar hyalinosis (any degree) and tubulo-interstitial fibrosis.
Inhibitor was given for 6 months, while the control diabetic mice were given vehicle alone (n=8 per group). Blood samples were drawn for analysis of glucose and glycosylated hemoglobin (HbA1c) monthly. The urine samples were collected monthly and albumin/creatinine ratio was determined by enzyme linked immunosorbent assays (Exocell Inc, PA, USA). Glomerular filtration rate (GFR) was determined using FITC-inulin clearance based on plasma elimination rate following single bolus intravenous injection.
(§2) Cyclooxygenase-1 (COX-1) is also abundantly expressed in the kidney, however its role in health and disease remains poorly defined. […] Diabetic mice were provide the COX-1 inhibitor for 6 months, while control diabetic mice given vehicle alone. […] Glomerular filtration rate was also determined using FITC-inulin clearance.

C57BLKS db/db mice [2] = assay: Kidney histopathology (mesangial expansion) in diabetic db/db mice; assay type: in vivo, mouse; conditions: treated vs. untreated (severe mesangial expansion in untreated)
Excerpt: as §1, §2

For `COc1ccc(-n2nc(C(F)(F)F)cc2-c2ccc(Cl)cc2)cc1` [SC8560], the “effect on Hb1C” value (C57BLKS db/db mice [1]) was “did not affect”, the “effect on blood sugar” value (C57BLKS db/db mice [1]) was “did not affect” and the “effect on body weight gain” value (C57BLKS db/db mice [1]) was “did not affect”. For the same compound, the “mesangial expansion (histopathology)” value (C57BLKS db/db mice [2]) was “less pronounced”.
